For data set [1] the following is noted: cited from earlier work.
Data set [2] deals with Jurkat human leukemia cell line. The data set can be described thus: MTT assay, cytotoxicity of free and micelle-encapsulated Gd(III) complex on Jurkat. The format is cell-based. The conditions noted are these: 3 days; for cytotoxicity: 50 µM. An excerpt:
(§1) The present inventors also evaluated the cytotoxicity of Gd(III) complexes using the MTT assay, another method measuring cell viability, on the Jurkat and MCF-7 cell lines (Figure 9 and 11). […] In order to estimate the concentration of Gd (III) complexes able to reduce cell viability by 50% (IC50), the present inventors plotted a linear regression line for each used cell line (Figure 10). […] It appears thus that Jurkat cells are slightly more susceptible to Gd (III) complexes than MCF-7 cells.
To compare the cytotoxicity of free and micelle-encapsulated Gd(III) complexes and to verify if the time of dialysis influences polymeric micelle cytotoxicity, the present inventors performed again the MTT assay on Jurkat cells. The cells were treated with incremental concentrations of the free and micelle-encapsulated Gd(III) complexes.
Two different cell lines were used to assess Gd(III) cytotoxicity: Jurkat, and MCF-7. Jurkat cells were seeded on two 96-well culture plates (BD Falcon) (50 µl in each well with a concentration of 4x10^5 cells/mL). Different concentrations (5 µM, 10 µM, 15 µM and 20 µM) of Gd(III) complex solution, diluted in 50 µl of RPMI-1640, were used. Each test was repeated eight times. As a negative control, cells were treated with ethanol (96%) (the same amount of ethanol present in the cells treated with a highest concentration of Gd(III) complex). Incubation was carried out for 3 days. In this experiment the toxicity of Gd(III) complex was evaluated by the 3-(4, 5-dimethylthiazol-2-yl)-2, 5-diphenyl tetrazolium bromide (MTT) assay. At the end of each incubation time 10 µl of 5 mg/mL MTT solution (AppliChem) were added to each well followed by further incubation for 4h. Then, 100 µl of 0.04 N HCL in isopropanol (BDH Prolabo) were added to the wells and formazan crystals were allowed to solubilize for 1 hour at room temperature. The formazan concentration was quantified using a spectrophotometer (Tecan Infinite M200 monochromator-based multi-function microplate reader) by measuring the absorbance at 570 nm and 630 nm. The final optical density (OD) obtained from formazan formation was calculated with the following formula: OD=L(570nm)-L(630nm). The toxicity was assessed by calculating the % of cell survival in relation to the control untreated group. […]
To assess Gd(III) complex-loaded polymeric micelle cytoxicity and to compare it with the toxicity from free Gd(III) complex, Jurkat cells were seeded on a 96-well culture plate (50 µl in each well with a concentration of 4x10^5 cells/mL). […] The cytotoxicity of Gd(III) complex and Gd(III) complex-loaded polymeric micelles was evaluated by the MTT assay following the procedure mentioned on 8.2.

The subject of data set [3] is MCF-7 breast cancer cell line. The data set can be described thus: MTT assay, cytotoxicity of Gd(III) complex on MCF-7. The format is cell-based, human.
Excerpt: as §1
Two different cell lines were used to assess Gd(III) cytotoxicity: Jurkat, and MCF-7. Jurkat cells were seeded on two 96-well culture plates (BD Falcon) (50 µl in each well with a concentration of 4x10^5 cells/mL). […] Each test was repeated eight times. As a negative control, cells were treated with ethanol (96%) (the same amount of ethanol present in the cells treated with a highest concentration of Gd(III) complex). Incubation was carried out for 3 days. In this experiment the toxicity of Gd(III) complex was evaluated by the 3-(4, 5-dimethylthiazol-2-yl)-2, 5-diphenyl tetrazolium bromide (MTT) assay. At the end of each incubation time 10 µl of 5 mg/mL MTT solution (AppliChem) were added to each well followed by further incubation for 4h. Then, 100 µl of 0.04 N HCL in isopropanol (BDH Prolabo) were added to the wells and formazan crystals were allowed to solubilize for 1 hour at room temperature. The formazan concentration was quantified using a spectrophotometer (Tecan Infinite M200 monochromator-based multi-function microplate reader) by measuring the absorbance at 570 nm and 630 nm. The final optical density (OD) obtained from formazan formation was calculated with the following formula: OD=L(570nm)-L(630nm). The toxicity was assessed by calculating the % of cell survival in relation to the control untreated group. The procedure described above was repeated for the MCF-7 cell line, after being seeded at 5 × 10^3 cells per each well and allowed to attach for 24h.
On the technique in general: Formazan colour is commonly taken as a measure of viable cells.

Data set [4] relates to Jurkat cell line. The data set can be described thus: Cell count with Trypan Blue, cytotoxicity of Gd(III) complex. The format is cell-based, human. The settings on record: 3 days. As for the experimental part:
The MCF-7, MDA-MB-468, HeLa, 293T; ARPE19; D407 and S17 adherent cell lines were maintained in DMEM medium (LONZA) supplemented with 10% fetal bovine serum (FBS) (PAA), glutamine (200 mM), penicillin (10000 units/mL) and streptomycin (10000 µg/mL) from LONZA. All cell culture incubations were performed at 37°C under humidified atmosphere of 5% CO2. The Jurkat and DND41 suspension cell lines were maintained in RPMI 1640 medium (LONZA) supplemented as above. Cells were thawed at 37°C and pipetted into 10 mL of prewarmed medium. The cells were centrifuged at 300 g for 5 minutes to remove dimethylsulfoxide (DMSO) (Merck). Then, the supernatant was discarded and the pellet resuspended in 2 mL of fresh medium. The cells were placed into T25 flasks (Nunc) and 8 mL of medium was added for a final volume of 10 mL. The medium was changed every 2 days. […] The hemocytometer Neubauer chamber (Hausser Scientific) was filled with the cell suspension and uncolored viable cells were counted on an inverted light microscope (Leica DM IL). The cells were counted in four 1 mm^2 squares. The equation to calculate the cell number per cubic millimeter is the following: Number of cells counted per square millimeter × dilution used × 10. […]

On to `Cc1ccc2ccc3cccc4ccc1c2c34` [1-methylpyrene], for which the “solubility in aqueous media” value in data set [1] is listed as “ca. 10^-7 M”.

Regarding “tetraaquodichloro(4,4'-ditBu-2,2'-bipyridine) gadolinium(III) chloride [Gd(III) complexes]”, the “toxicity (number of viable cells)” value in data set [2] (10 µM) is “toxic”; in data set [3] (10 µM, MTT, 3 days, MCF-7), “toxic”. The cytotoxicity entry in data set [2] is “kill all cells”; in data set [2] (listed as free Gd(III) complexes), “killed almost all cells”. For the same compound, the IC50 was determined as 10.2 µM in data set [2] (from linear regression line, read-out: IC50 (concentration able to reduce cell viability by 50%)) and 12.8 µM in data set [3] (MCF-7, 3 days, MTT, from linear regression line, read-out: IC50 (concentration able to reduce cell viability by 50%)). Further, in data set [3] (50 µM, 3 days, MCF-7 cells as printed), the toxicity entry is recorded as “overall cell death”. The “toxicity by cell count” value in data set [4] (10 µM) is given as “less toxic”; in data set [4] (50 µM) it was “very toxic”.

The values above are taken from patent EP2547369B1, “A NA[…] MICELLE FORMED BY AN A[…]-COPOLYMER AND ENCAPSULATING A […]” (King Saud University, priority 2010, dated 2011).
